The term solubility denotes how much of the substance goes into solution per volume.

This note sets out measurements from US10189818B2, “5-(5-(2-(3-aminopropdoxy)-6-methoxyphenyl)-1H-pyrazol-3-ylamino)pyrazine-2-carbonitfile (S)-lactate monohydrate” (priority 2015, dated 2019).

Data set [1] can be described thus: Stability comparison of the salt forms (Table 2). As to conditions: salt form comparison. The class given is physicochemical.
A short description of data set [2]: Solubility screen of the salts in aqueous acid solution, HPLC. The class given is physicochemical. As to conditions: thermodynamic from solid, room temperature, one week. As for the experimental part: Prepare an aqueous solution (approximately 0.1 M) of selected acid. Add solid 5-(5-(2-(3-aminopropoxy)-6-methoxyphenyl)-1H-pyrazol-3-ylamino)pyrazine-2-carbonitrile (20-26 mg). Agitate slurry at room temperature for one week. Measure the 5-(5-(2-(3-aminopropoxy)-6-methoxyphenyl)-1H-pyrazol-3-ylamino)pyrazine-2-carbonitrile concentration by HPLC. Aliquots (˜200 μL) are withdrawn from the suspensions through 0.45 micron Millex® PTFE filters. Dilute samples with mobile phase and analyze by HPLC. Analyze the samples with an Agilent 1100 HPLC (Instrument 800) with a Zorbax Bonus RP (75 mm×4.6 mm, 3.5 micron particle size) column, or equivalent. The mobile phase consists of 20% of a 0.1% TFA in acetonitrile mixture and 80% of a 0.1% TFA in water mixture. Instrument conditions are as follows: flow rate 1.0 mL/minute, wavelength of detection 290 nm, 3 μL injection volume, 10 minute run time, and column temperature of 30° C. Prepare a stock solution of 5-(5-(2-(3-aminopropoxy)-6-methoxyphenyl)-1H-pyrazol-3-ylamino)pyrazine-2-carbonitrile in 50/50 water/acetonitrile and dilute with 50/50 water/acetonitrile to give concentrations suitable for quantification of the solubility samples. Dilute the samples with 50/50 acetonitrile/water. Use a dilution factor of 200 for the samples. Measure the pH of each solution and analyze the solid residues by microscopy and XRPD (wet and dry) for crystallinity and crystal form.
Prepare a (S)-lactic acid aqueous solution (0.104 M, 1 mL). Add solid 5-(5-(2-(3-aminopropoxy)-6-methoxyphenyl)-1H-pyrazol-3-ylamino)pyrazine-2-carbonitrile (21.7 mg, 0.059 mmol). Agitate the slurry at room temperature for one week. Measure the 5-(5-(2-(3-aminopropoxy)-6-methoxyphenyl)-1H-pyrazol-3-ylamino)pyrazine-2-carbonitrile concentration by HPLC. Withdraw an aliquot (˜200 μL) from the suspension through 0.45 micron Millex® PTFE filters. Dilute the samples with mobile phase and analyze by HPLC. Analyze the samples with an Agilent 1100 HPLC (Instrument 800) with a Zorbax Bonus RP (75 mm×4.6 mm, 3.5 micron particle size) column, or equivalent. The mobile phase consists of 20% of a 0.1% TFA in acetonitrile mixture and 80% of a 0.1% TFA in water mixture. Instrument conditions are as follows: flow rate 1.0 mL/minute, wavelength of detection 290 nm, 3 μL injection volume, 10 minute run time, and column temperature of 30° C. Prepare a stock solution of 5-(5-(2-(3-aminopropoxy)-6-methoxyphenyl)-1H-pyrazol-3-ylamino)pyrazine-2-carbonitrile in 50/50 water/acetonitrile and dilute with 50/50 water/acetonitrile to give concentrations suitable for quantification of the solubility samples. Dilute the samples with 50/50 acetonitrile/water. Use a dilution factor of 200 for the samples. […]

A short description of data set [3]: Pharmacokinetic comparison after 1-hour IV infusion, plasma concentrations by LC-MS/MS. The class given is in vivo, male Sprague-Dawley rats. Conditions: rat; for concentration at 0.25 h / concentration at 0.5 h / concentration at 1 h / concentration at 1.25 h / concentration at 1.5 h / concentration at 2 h / concentration at 4 h / concentration at 8 h / concentration at 24 h: male, Sprague-Dawley, single 10 mg/kg 1-hour intravenous infusion; for concentration at 0.25 h: 0.25 hours after start of infusion; for concentration at 0.5 h: 0.5 hours after start of infusion; for concentration at 1 h: 1 hour after start of infusion; for concentration at 1.25 h: 1.25 hours after start of infusion; for concentration at 1.5 h: 1.5 hours after start of infusion; for concentration at 2 h: 2 hours after start of infusion; for concentration at 4 h: 4 hours after start of infusion; for concentration at 8 h: 8 hours after start of infusion; for concentration at 24 h: 24 hours after start of infusion; for Difference in blood plasma levels between the two salt forms (2 sample t-test, pooled error): 10 mg/kg IV infusion for 1 hour, mesylate formulated in Captisol, (S)-lactate in trehalose. How it is done: Evaluate the noncompartmental pharmacokinetic parameters of the methanesulfonic acid monohydrate and (S)-lactate monohydrate salts of 5-(5-(2-(3-aminopropoxy)-6-methoxyphenyl)-1H-pyrazol-3-ylamino)pyrazine-2-carbonitrile after intravenous (IV) infusion of 10 mg/kg of the methanesulfonic acid monohydrate salt (10 mg/kg, formulated in Captisol®) or of the (S)-lactate monohydrate salt (formulated in trehalose) into the femoral vein cannula of fed male Sprague-Dawley rats for 1 hour. Collect blood samples over 24 hours from 6 animals/group. Collect blood samples into tubes containing K3EDTA at 0.25, 0.5, 1, 1.25, 1.5, 2, 4, 8, and 24 hours after the start of infusion. Centrifuge the samples to obtain plasma, and freeze until analyzed. Determine plasma concentrations using a validated LC-MS/MS assay.
Dispense WFI equivalent to approximately 80% of the final batch volume. Warm the WFI to 40° C.±3° C. and transfer to the manufacturing vessel. Weigh the required amount of active pharmaceutical ingredient and after ensuring that the WFI temperature is still within the specified range, quantitatively transfer the active pharmaceutical ingredient into the manufacturing vessel while stirring. Stir until the active pharmaceutical ingredient has dissolved yielding a clear yellow solution, stirring for no longer than 30 minutes. Add trehalose and polysorbate 80 to the manufacturing vessel. Stir until dissolved. Measure the pH of the solution and adjust to pH 4.4±0.3 with lactic acid (Note: If using lactic acid 88%-92% solution, titrate slowly and cautiously as small quantities can produce large changes in pH, or prepare a 10% solution of lactic acid for pH adjustment). If necessary, and only if the pH drops below the lower limit during adjustment, add 10% NaOH solution to bring the pH back into range. Add WFI to the manufacturing vessel to bring the solution to the final batch weight which is calculated based on the desired batch volume and the density of the solution. Measure the pH of the solution and adjust, if necessary, to pH 4.4±0.3 with lactic acid or 10% NaOH. The solution is filtered through a sterile 0.22 micron PVDF membrane (Millipore Durapore®) into a sterile receiving vessel. Fill the drug product into sterile vials. Upon completion of filling, stopper and seal vials. If not dosed within about 4 hours, store all vials at −20° C.
Dispense WFI equivalent to approximately 80% of the final batch volume into the manufacturing vessel. Weigh the required amount of Captisol® and transfer to the manufacturing vessel. Stir until dissolved. Weigh the required amount of active pharmaceutical ingredient and form a slurry by adding WFI to the active pharmaceutical ingredient with swirling until wetted. Transfer the slurry to the stirring Captisol® solution. Rinse the active pharmaceutical ingredient with WFI (3×) and add the rinses to the stirring bulk solution. Stir until the active pharmaceutical ingredient has been dispersed. Stir for no longer than 60 minutes. Some particles may be visible in the manufacturing vessel after stirring for 60 minutes. Maintain the pH of the solution between 4.0-6.0. If the pH drops below the lower limit, 10% NaOH solution may be added to bring the pH into range. Add WFI to the manufacturing vessel to bring the solution to the final batch weight which is calculated based on the desired batch volume and the density of the solution. Measure the pH of the solution and adjust, if necessary, to pH 4.0-6.0 with 10% NaOH. Filter the solution through a sterile 0.22 micron PVDF membrane (Millipore Durapore®) into a sterile receiving vessel. Fill the drug product into sterile vials. Upon completion of filling, stopper and seal the vials. If not dosed within about 4 hours, store all vials at −20° C.

Where [4] appears, read: aqueous buffer, water solubility comparison, slurry in approx. 0.1 M aqueous acid.

With `COc1cccc(OCCCN)c1-c1cc(Nc2cnc(C#N)cn2)n[nH]1.C[C@H](O)C(=O)O` [(S)-Lactate Monohydrate, 5-(5-(2-(3-Aminopropoxy)-6-methoxyphenyl)-1H-pyrazol-3-ylamino)pyrazine-2-carbonitrile (S)-lactate Monohydrate], the Stability result in data set [1] is listed as “Satisfactory”. In data set [2] (aqueous (S)-lactic acid solution, pH 2.46, aqueous buffer, in water, measured at a pH of 2.46, 0.104 M (S)-lactic acid), the solubility at 1 week is greater than 20000 µg/mL. For the same compound, the solubility at 1 week in data set [2] (aqueous solution of the selected acid, aqueous buffer, water solubility comparison, slurry in approx. 0.1 M aqueous acid) was greater than 20000 µg/mL. In data set [3] (plasma), this compound showed a concentration at 0.25 h of 1110 ng/mL, a concentration at 0.5 h of 1180 ng/mL, a concentration at 1 h of 1140 ng/mL and a concentration at 1.25 h of 405 ng/mL. Also, in data set [3] (plasma), the concentration at 1.5 h turned out to be 283 ng/mL, the concentration at 2 h worked out at 217 ng/mL, the concentration at 4 h was 73.8 ng/mL and the concentration at 8 h was found to be 28.6 ng/mL. In data set [3] (plasma), the concentration at 24 h was determined as 2.6 ng/mL. In addition, the “Difference in blood plasma levels between the two salt forms (2 sample t-test, pooled error)” value in data set [3] is listed as “no significant difference”.
On to `COc1cccc(OCCCN)c1-c1cc(Nc2cnc(C#N)cn2)n[nH]1.CS(=O)(=O)O.O` [Methanesulfonic acid Monohydrate, 5-(5-(2-(3-aminopropoxy)-6-methoxyphenyl)-1H-pyrazol-3-ylamino)pyrazine-2-carbonitrile methanesulfonic acid monohydrate salt], for which the Stability result in data set [1] was “Satisfactory”. Further, the solubility at 1 week in data set [2] (setting [4]) was determined as 6630 µg/mL. In data set [3] (in vivo), this compound came in with a concentration at 0.25 h of 1060 ng/mL, a concentration at 0.5 h of 1100 ng/mL, a concentration at 1 h of 930 ng/mL and a concentration at 1.25 h of 319 ng/mL. In data set [3] (in vivo), this compound yielded a concentration at 1.5 h of 249 ng/mL, a concentration at 2 h of 178 ng/mL, a concentration at 4 h of 67.5 ng/mL and a concentration at 8 h of 30.3 ng/mL. In data set [3] (in vivo), the concentration at 24 h was 3 ng/mL. In addition, the “Difference in blood plasma levels between the two salt forms (2 sample t-test, pooled error)” value in data set [3] is on record as “no significant difference”.
Take `COc1cccc(OCCCN)c1-c1cc(Nc2cnc(C#N)cn2)n[nH]1.Cl.Cl` [Di-HCl, 5-(5-(2-(3-aminopropoxy)-6-methoxyphenyl)-1H-pyrazol-3-ylamino)pyrazine-2-carbonitrile di-HCl salt]: the Stability entry in data set [1] was “Unstable”. Also, the solubility at 1 week in data set [2] (setting [4]) turned out to be 107 µg/mL.
